Like-named read-outs stand apart in the source and are kept apart here.
Tests used:
PAMPA BBB permeability = format: in vitro ADME; conditions: for Papp at 4 h, 50 μM: PAMPA, pH 7.4, 50 μM
Protocol: A parallel artificial membrane permeability assay (PAMPA)^70 was performed to validate the blood-brain barrier permeability of KDS12025. The procedure began by preparing a donor solution of the compound in a pH 7.4 donor buffer. This solution was added to the wells of a deep well plate, followed by the addition of a high-sensitivity UV plate filled with donor buffer to serve as the blank sample. An initial sample for the UV plate was taken to establish a baseline reading. The PAMPA sandwich was then assembled by adding the donor plate mixture to the donor plate well, followed by placing a BBB-lipid coated membrane on top and an acceptor plate filled with acceptor buffer. This setup was incubated at 25 °C for a specific duration to allow diffusion. Post-incubation, a sample from the acceptor plate was taken, and the UV absorbance was measured to determine the permeated amount of the test compound. The permeability was then calculated using the PAMPA explorer program, considering the initial donor concentration and the acceptor's concentration after incubation.

CAT = assay: Bubbling liberation (oxygen release) with CAT; format: biochemical; conditions: CAT + H2O2, Fig. 2g
Protocol: (§1) The effects of bubbling with DMSO, HTPEB, and KDS12025 were evaluated. To measure the degree of bubbling quantitatively, the reactions were conducted in sealed tubes connected to an inverted cylinder submerged in a water bath to record the time and volume of the bubbles produced. […] Vehicle, HTPEB, and KDS12025 were added to assess their effects. A similar procedure was followed for Hb.

Hb [1] = biological target: T1, Hb (Homo sapiens, UniProt P68871); assay: Bubbling liberation (oxygen release) with Hb; format: biochemical; conditions: Hb + H2O2, Fig. 2g
T1 construct: purchased Sigma-Aldrich H7379
T1 sequence (P68871 2-147 limits assumed): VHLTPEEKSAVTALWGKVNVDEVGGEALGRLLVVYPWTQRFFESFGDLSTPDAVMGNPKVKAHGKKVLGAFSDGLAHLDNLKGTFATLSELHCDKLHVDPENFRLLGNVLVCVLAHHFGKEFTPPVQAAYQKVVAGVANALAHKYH
T1 sequence (P69905 2-142 partner limits assumed): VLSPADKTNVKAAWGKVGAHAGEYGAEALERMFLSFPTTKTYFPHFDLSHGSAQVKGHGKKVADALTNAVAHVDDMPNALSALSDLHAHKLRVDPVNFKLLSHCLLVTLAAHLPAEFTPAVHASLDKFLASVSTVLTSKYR
Protocol: as §1

Hb [2] = biological target: T1, Hb; assay: ROS-Glo H2O2 assay with Hb; format: biochemical; conditions: for remaining H2O2 normalized to no Hb: Fig. 2d; for fold change in H2O2 decomposition (Hb pseudoperoxidase activity per 0.5 h): 30-min window, Fig. 2b
Protocol: (§2) Hb (Sigma‒Aldrich, H7379), H2O2 (Sigma‒Aldrich, H1009), and Amplex Red reagents (Invitrogen, A12222) were obtained for the study. A 4 μM H2O2 solution was prepared in 50 mM sodium phosphate buffer (pH 7.2). Then, 49 μl of this mixture was mixed with 1 μl of the test compound in DMSO or distilled water. The mixture was combined with an assay mixture of Amplex Red reagent (20 mM stock to 0.1 mM) and HRP (200 U/ml stock to 0.2 U/ml) and added to the wells at 50 μl/well. After a 60-min incubation at 37 °C, resorufin production was quantified via a microplate fluorescence reader (SpectraMax iD5, Molecular Devices) at ex/em = 535/580 nm. […] For the ROS-Glo assay, the H2O2 substrate solution and ROS-Glo detection solution were prepared according to the manufacturer’s instructions. 10 μM H2O2 and drugs were prepared as in the Amplex Red assay, with HRP, Hb, CAT, or GPx added as needed. The mixture was added to the wells at 100 μl/well and incubated for 60 min at 37 °C. H2O2 substrate solution was added, and the mixture was incubated at room temperature for 30 min. After the H2O2 substrate solution was added and incubated at room temperature for 30 min, the ROS-Glo detection solution was added, and the mixture was incubated for 15 min. Luminescence was measured via iD5 microplate readers. […] The U/ml was calculated on the basis of the amount of H2O2 reduced by Hb during the reaction, using μg/ml and U/mg.
(§3) To evaluate the extent of peroxidase function facilitation by HTPEB (1 μM) and KDS12025 (1 μM) in HRP (0.2 U/ml) and Hb (10 μg/ml), we used the ROS-Glo assay over 30 and 60 min. The fold change was calculated by dividing the delta values during the 30-min reaction for the vehicle over drug conditions.
To assess enzyme activity, the amount of H2O2 consumed over a specific time was quantified alongside a standard curve. For the peroxidase function of Hb, Hb was administered at doses ranging from 0.01 to 112 U/ml and preincubated with H2O2 and either DMSO, HTPEB (1 μM), or KDS12025 (1 μM) at 37 °C for 30 min. The remaining H2O2 was measured via the ROS-Glo assay and normalized against conditions without Hb. The dose‒response curve, EC50, and EC20 for H2O2 decomposition were calculated and determined by fitting the data with GraphPad Prism software. The fitting method had no special handling of outliers, and least squares regression with confidence intervals of the parameters was 95%.

HRP [3] = biological target: T2, HRP (Armoracia rusticana, UniProt P00433); assay: ROS-Glo H2O2 assay with HRP; format: biochemical, horseradish; conditions: for fold change in H2O2 decomposition by HRP: 30-min window, Fig. 2b
T2 sequence (P00433 31-353): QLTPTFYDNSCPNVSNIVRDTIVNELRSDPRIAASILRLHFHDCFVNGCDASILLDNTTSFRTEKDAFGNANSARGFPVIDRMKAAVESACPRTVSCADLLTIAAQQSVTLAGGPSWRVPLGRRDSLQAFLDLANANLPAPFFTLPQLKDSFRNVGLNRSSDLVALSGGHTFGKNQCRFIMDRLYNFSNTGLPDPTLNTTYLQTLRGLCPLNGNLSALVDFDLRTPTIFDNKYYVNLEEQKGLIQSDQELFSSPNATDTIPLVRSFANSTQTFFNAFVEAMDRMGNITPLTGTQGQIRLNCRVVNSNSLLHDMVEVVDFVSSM
Protocol: as §2, §3

GPx = GPx colorimetric assay; format: biochemical; conditions: standard GPx assay
Protocol: To assess the GPx activity, the reaction was prepared in a 96-well plate by adding glutathione reductase and glutathione solution, GPx enzyme (5µl, final concentration 60 U/ml), and the drug (1 µl of KDS12025 and HTEPB) to a total volume of 100 µl per well, followed by manufactural protocol (Abcam, ab102530). The plate was incubated at room temperature for 15 min to allow pre-reactions and drug interactions to occur. Following the incubation, the reaction was initiated by adding cumene hydroperoxide as the substrate to each well. The absorbance at 340 nm was measured in kinetic mode for 10–20 min, and the rate of NADPH consumption was used to calculate GPx activity, reflecting the enzyme’s ability to reduce the hydroperoxide substrate in the presence of the test compound.

[4] = Solubility in aqueous solutions (statement); format: physicochemical
HRP [5] = biological target: T2, HRP; assay: Bubbling liberation (oxygen release) with HRP; format: biochemical, horseradish; conditions: HRP + H2O2, Fig. 2g
Protocol: as §1

[6] = read-out: BCS code: permeability classification
[7] = Tables S2, S3, read-out: HB-EC50
[8] = in the presence of Hb, Fig. 1h, read-out: EC50 with Hb (H2O2 decomposition)

CNc1ccc(NCCc2ccccc2OC)cc1.Cl [KDS12025, N^1-(2-methoxyphenethyl)-N^4-methylbenzene-1,4-diamine hydrochloride salt]
BCS code: CNS +/- classification (PAMPA BBB permeability; 50 μM, 4 h): + (> 10) | Papp at 4 h, 50 μM (PAMPA BBB permeability; U.V, read-out: Pe (PAMPA BBB permeability)): 67.4 ×10⁻⁶ cm/s | Papp at 4 h, 50 μM (PAMPA BBB permeability; [6]): > 0.4 ×10⁻⁶ cm/s | bubbles per 1 × 1 mm^2 area (CAT): 92.0±6.622 | bubbles per 1 × 1 mm^2 area (Hb [1]): 13.5±2.533 | enhancement of Hb pseudoperoxidase activity (Hb [2]): 100 fold | EC50 (Hb [2]; Fig. S1f, read-out: EC50, H2O2 decomposition with human hemoglobin (hHb)): 33 nM | remaining H2O2 normalized to no Hb (Hb [2]; Hb 0.01 U/ml): 82.57±2.025 | H2O2 decomposition at extremely low Hb (Hb [2]; Hb 0.04 U/ml, 0.03 μg/ml): up to 20% | remaining H2O2 normalized to no Hb (Hb [2]; Hb 0.1 U/ml): 75.36±1.113 | remaining H2O2 normalized to no Hb (Hb [2]; Hb 1 U/ml): 62.38±2.923 | fold change in H2O2 decomposition (Hb pseudoperoxidase activity per 0.5 h) (Hb [2]): 5.676±0.6374 fold | EC50 (Hb [2]; [7]): 44.9 nM | EC50 (Hb [2]; [8]): 40 nM | potency relative to HTPEB (Hb [2]; ratio of EC50 with Hb): ~ 4 fold | fold decrease of Hb EC20 for H2O2 decomposition (Hb [2]; vs Hb alone, Fig. 2e): 98 fold | fold decrease of Hb EC50 for H2O2 decomposition (Hb [2]; vs Hb alone, Fig. 2e): 4.7 fold | fold change in H2O2 decomposition by HRP (HRP [3]): 5.642±0.5747 | effect on GPx activity (GPx): did not affect other peroxidases | solubility in water / aqueous solutions [4]: highly water soluble | bubbles per 1 × 1 mm^2 area (HRP [5]): 7.3±0.947

O=C(O)c1cc(NCCc2ccc(C(F)(F)F)cc2)ccc1O [HTPEB, 2-hydroxy-5-[2-(4-trifluoromethyl-phenyl)-ethylamino]-benzoic acid, reference compound]
BCS code: CNS +/- classification (PAMPA BBB permeability; 50 μM, 4 h): - (< 10) | Pe (PAMPA BBB permeability) (PAMPA BBB permeability; 50 μM, 4 h, U.V): 3.56 10^-6cm/sec | Papp at 4 h, 50 μM (PAMPA BBB permeability; [6]): > 0.4 ×10⁻⁶ cm/s | bubbles per 1 × 1 mm^2 area (CAT): 84.5±9.957 | bubbles per 1 × 1 mm^2 area (Hb [1]): 12.5±3.969 | remaining H2O2 normalized to no Hb (Hb [2]; Hb 0.01 U/ml): 84.92±3.034 | remaining H2O2 normalized to no Hb (Hb [2]; Hb 0.1 U/ml): 81.24±5.607 | remaining H2O2 normalized to no Hb (Hb [2]; Hb 1 U/ml): 70.82±3.83 | fold change in H2O2 decomposition (Hb pseudoperoxidase activity per 0.5 h) (Hb [2]): 2.529±0.6645 fold | EC50 (Hb [2]; [7]): 155 nM | EC50 (Hb [2]; [8]): 150 nM | facilitation of H2O2 decomposition by Hb (Hb [2]; with HTPEB, Fig. 1f): 2 fold | EC50 (HRP [3]; Fig. 1e, read-out: EC50, ROS-Glo assay with replenishing HRP): 2500 nM | tau value, reaction time-response of HRP with HTPEB (HRP [3]; Fig. S1b): 8.57 min | fold change in H2O2 decomposition by HRP (HRP [3]): 3.769±0.7911 | effect on GPx activity (GPx): no enhancement | solubility in water / aqueous solutions [4]: poor | bubbles per 1 × 1 mm^2 area (HRP [5]): 9.0±1.0

CN(C)c1ccc(NCCc2ccc(C(F)(F)F)cc2)cc1.Cl [KDS12008, N^1,N^1-dimethyl-N^4-(4-(trifluoromethyl)phenethyl)benzene-1,4-diamine hydrochloride salt]
EC50 (Hb [2]; [7]): 67 nM

CNc1ccc(NCCc2ccc(C(F)(F)F)cc2)cc1.Cl [KDS12017, N^1-methyl-N^4-(4-(trifluoromethyl)phenethyl)benzene-1,4-diamine hydrochloride salt]
EC50 (Hb [2]; [7]): 86.2 nM | EC50 (Hb [2]; [8]): 90 nM

Source: article PMC12373846, “Hemoglobin as a pseudoperoxidase and drug target for oxidative stress-related diseases” (Signal Transduction and Targeted Therapy, 2025)
